Source: patent US20250136607A1 (REGOR PHARMACEUTICALS, INC., priority 2021, published 2025)
Like-named read-outs stand apart in the source and are kept apart here.

Assays:
[1] = target: Protein arginine deiminase 4 (PAD4) (Homo sapiens, UniProt Q9UM07); experiment: PAD4 ammonia release assay; format: biochemical
In short: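 Ammonia release from BAEE substrate (2× mix 600 μM) was measured after 60 min at RT, following 15 min enzyme–compound preincubation (PAD4 2× 20 nM; pH 8.0 HEPES, 2 mM CaCl2, TCEP; 1.25% DMSO). Detection used OPA/DTT/EDTA for 120 min. % inhibition was taken versus reference-compound and DMSO controls; IC50 by four-parameter logistic fit.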

[2] = tested on: Citrullinated Histone H3 in dHL-60 cells (differentiated HL-60); experiment: dHL-60 Cit-H3 ELISA assay; format: cell-based, human; conditions: Homo sapiens, read-out: Average IC50 Abs
In short: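 HL-60 cells differentiated 72 h with DMF, plated at 1×10^5/well, pretreated 30 min with compound (8-point 3-fold series, 0.2% DMSO), then stimulated 3 h at 37 °C with 25 μM A23187 plus S7 nuclease. Supernatant citrullinated H3 quantified by HRP ELISA at 450 nm; IC50 by four-parameter fit.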

[3] = PAD4 ammonia release assay, BAEE substrate, 60 min at RT, read-out: Average IC50 Abs
[4] = HL-60, 3 h, stimulation with 25 μM A23187 for 3 h

Chain of Protein arginine deiminase 4 (PAD4) (Q9UM07 whole entry): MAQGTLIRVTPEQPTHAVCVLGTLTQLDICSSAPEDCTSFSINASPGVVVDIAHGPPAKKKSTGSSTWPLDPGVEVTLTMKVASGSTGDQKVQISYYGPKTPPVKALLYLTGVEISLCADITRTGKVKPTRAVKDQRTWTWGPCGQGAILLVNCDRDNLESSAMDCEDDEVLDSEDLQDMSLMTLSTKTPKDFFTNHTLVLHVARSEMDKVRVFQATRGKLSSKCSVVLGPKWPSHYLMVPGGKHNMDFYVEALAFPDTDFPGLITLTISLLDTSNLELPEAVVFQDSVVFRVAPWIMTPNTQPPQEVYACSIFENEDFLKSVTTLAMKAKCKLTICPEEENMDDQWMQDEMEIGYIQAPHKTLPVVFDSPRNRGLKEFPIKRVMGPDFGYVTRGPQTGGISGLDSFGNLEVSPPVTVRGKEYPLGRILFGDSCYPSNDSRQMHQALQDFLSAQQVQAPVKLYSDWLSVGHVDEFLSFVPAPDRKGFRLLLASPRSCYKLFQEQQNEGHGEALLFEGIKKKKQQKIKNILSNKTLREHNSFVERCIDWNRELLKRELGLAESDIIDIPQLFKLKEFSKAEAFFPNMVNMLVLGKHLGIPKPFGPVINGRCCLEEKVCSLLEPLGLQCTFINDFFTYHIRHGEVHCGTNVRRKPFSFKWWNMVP

Row | Structure (SMILES) | IC50 [1, 3] | IC50 [2, 4] | IC50 ([1]; PAD4 activity comparison, read-out: PAD4 Ammonia assay IC50) | relative potency of separated isomers in the PAD4 biochemical assay ([1]; SFC-separated stereoisomer pairs) | IC50 ([2]; HL-60, stimulation with 25 μM A23187 for 3 h)
1 | CCC1CN(CCCO)c2cccc3cc(-c4nc5cc(C(=O)N6C[C@H]7CC[C@@H]6[C@@H]7N)cc(F)c5n4CC4COC4)n1c23 (stereo partly drawn) [Example 92, ((1R,4R,7R)-7-amino-2-azabicyclo[2.2.1]heptan-2-yl)(2-(3-ethyl-1-(3-hydroxypropyl)-2,3-dihydro-1H-pyrrolo[1,2,3-de]quinoxalin-5-yl)-7-fluoro-1-(oxetan-3-ylmethyl)-1H-benzo[d]imidazol-5-yl)methanone] | 100 to 500 nM | ≤ 100 nM | – | – | –
2 | CCC1CN(CCC(N)=O)c2cccc3cc(-c4nc5cc(C(=O)N6C[C@H](N)C[C@@H](F)C6)cc(OC)c5n4C)n1c23 (stereo partly drawn) [Example 94, 3-(5-(5-((3R,5R)-3-amino-5-fluoropiperidine-1-carbonyl)-7-methoxy-1-methyl-1H-benzo[d]imidazol-2-yl)-3-ethyl-2,3-dihydro-1H-pyrrolo[1,2,3-de]quinoxalin-1-yl)propanamide] | ≤ 100 nM | 100 to 500 nM | – | – | –
3 | CCC1CN(CCCOC)c2cccc3cc(-c4nc5cc(C(=O)N6C[C@H]7CC[C@@H]6[C@@H]7N)cc(F)c5n4CC)n1c23 (stereo partly drawn) [Example 100, ((1R,4R,7R)-7-amino-2-azabicyclo[2.2.1]heptan-2-yl)(1-ethyl-2-(3-ethyl-1-(3-methoxypropyl)-2,3-dihydro-1H-pyrrolo[1,2,3-de]quinoxalin-5-yl)-7-fluoro-1H-benzo[d]imidazol-5-yl)methanone] | 100 to 500 nM | 100 to 500 nM | – | – | –
4 | CC(C)C1CN(CCCO)c2cccc3cc(-c4nc5cc(C(=O)N6C[C@H]7CC[C@@H]6[C@@H]7N)cc(F)c5n4C)n1c23 (stereo partly drawn) [Example 103, ((1R,4R,7R)-7-amino-2-azabicyclo[2.2.1]heptan-2-yl)(7-fluoro-2-(1-(3-hydroxypropyl)-3-isopropyl-2,3-dihydro-1H-pyrrolo[1,2,3-de]quinoxalin-5-yl)-1-methyl-1H-benzo[d]imidazol-5-yl)methanone] | 100 to 500 nM | – | – | – | ≤ 100 nM
5 | CC(C)C1CNc2cccc3cc(-c4nc5cc(C(=O)N6C[C@H]7CC[C@@H]6[C@@H]7N)cc(F)c5n4C)n1c23 (stereo partly drawn) [Example 104, ((1R,4R,7R)-7-amino-2-azabicyclo[2.2.1]heptan-2-yl)(7-fluoro-2-(3-isopropyl-2,3-dihydro-1H-pyrrolo[1,2,3-de]quinoxalin-5-yl)-1-methyl-1H-benzo[d]imidazol-5-yl)methanone] | 100 to 500 nM | ≤ 100 nM | 130 nM | – | –
6 | CC(C)[C@H]1CNc2cccc3cc(-c4nc5cc(C(=O)N6C[C@H]7CC[C@@H]6[C@@H]7N)cc(F)c5n4C)n1c23 [Example 106, ((1R,4R,7R)-7-amino-2-azabicyclo[2.2.1]heptan-2-yl)(7-fluoro-2-((S)-3-isopropyl-2,3-dihydro-1H-pyrrolo[1,2,3-de]quinoxalin-5-yl)-1-methyl-1H-benzo[d]imidazol-5-yl)methanone] | 100 to 500 nM | ≤ 100 nM | – | more potent than Example 105 | –
7 | CC(C)C1CN(C)c2cccc3cc(-c4nc5cc(C(=O)N6C[C@H]7CC[C@@H]6[C@@H]7N)cc(F)c5n4C)n1c23 (stereo partly drawn) [Example 107, ((1R,4R,7R)-7-amino-2-azabicyclo[2.2.1]heptan-2-yl)(7-fluoro-2-(3-isopropyl-1-methyl-2,3-dihydro-1H-pyrrolo[1,2,3-de]quinoxalin-5-yl)-1-methyl-1H-benzo[d]imidazol-5-yl)methanone] | 100 to 500 nM | 100 to 500 nM | – | – | –
8 | Cn1c(-c2cc3cc(F)cc4c3n2C(C2CC2)CN4)nc2cc(C(=O)N3C[C@H]4CC[C@@H]3[C@@H]4N)cc(F)c21 (stereo partly drawn) [Example 122, ((1R,4R,7R)-7-amino-2-azabicyclo[2.2.1]heptan-2-yl)(2-(3-cyclopropyl-8-fluoro-2,3-dihydro-1H-pyrrolo[1,2,3-de]quinoxalin-5-yl)-7-fluoro-1-methyl-1H-benzo[d]imidazol-5-yl)methanone] | 100 to 500 nM | 100 to 500 nM | – | – | –
9 | Cn1c(-c2cc3ccc(S(C)(=O)=O)c4c3n2C(C2CC2)CN4)nc2cc(C(=O)N3C[C@H]4CC[C@@H]3[C@@H]4N)cc(F)c21 (stereo partly drawn) [Example 123, ((1R,4R,7R)-7-amino-2-azabicyclo[2.2.1]heptan-2-yl)(2-(3-cyclopropyl-9-(methylsulfonyl)-2,3-dihydro-1H-pyrrolo[1,2,3-de]quinoxalin-5-yl)-7-fluoro-1-methyl-1H-benzo[d]imidazol-5-yl)methanone] | ≤ 100 nM | ≤ 100 nM | – | – | –

Second part, led by results:

Row | IC50 [1, 3] | IC50 [2, 4] | IC50 ([1]; PAD4 activity comparison, read-out: PAD4 Ammonia assay IC50) | relative potency of separated isomers in the PAD4 biochemical assay ([1]; SFC-separated stereoisomer pairs) | Structure (SMILES) | IC50 ([2]; HL-60, stimulation with 25 μM A23187 for 3 h)
10 | 100 to 500 nM | 100 to 500 nM | – | – | CCC1CNc2cc(F)cc3cc(-c4nc5cc(C(=O)N6C[C@H]7CC[C@@H]6[C@@H]7N)cc(F)c5n4C)n1c23 (stereo partly drawn) [Example 130, ((1R,4R,7R)-7-amino-2-azabicyclo[2.2.1]heptan-2-yl)(2-(3-ethyl-8-fluoro-2,3-dihydro-1H-pyrrolo[1,2,3-de]quinoxalin-5-yl)-7-fluoro-1-methyl-1H-benzo[d]imidazol-5-yl)methanone] | –
11 | 100 to 500 nM | 500 to 5000 nM | – | – | CCC1CNc2cccc3cc(-c4nn5cc(C(=O)N6C[C@H]7CC[C@@H]6[C@@H]7N)cc(F)c5c4C)n1c23 (stereo partly drawn) [Example 140, [(1R,4R,7R)-7-amino-2-azabicyclo[2.2.1]heptan-2-yl]-[2-(11-ethyl-1,9-diazatricyclo[6.3.1.0^4,12]dodeca-2,4,6,8(12)-tetraen-2-yl)-4-fluoro-3-methyl-pyrazolo[1,5-a]pyridin-6-yl]methanone] | –
12 | ≤ 100 nM | 100 to 500 nM | – | – | Cn1c(-c2cc3ccc4c(c3n2CC2CC2)NCC4)nc2cc(C(=O)N3C[C@H]4CC[C@@H]3[C@@H]4N)cc(F)c21 [Example 147, ((1R,4R,7R)-7-amino-2-azabicyclo[2.2.1]heptan-2-yl)(2-(1-(cyclopropylmethyl)-1,6,7,8-tetrahydropyrrolo[3,2-g]indol-2-yl)-7-fluoro-1-methyl-1H-benzo[d]imidazol-5-yl)methanone] | –
13 | ≤ 100 nM | ≤ 100 nM | – | – | Cn1c(-c2cc3ccc4cc[nH]c4c3n2CC2CC2)nc2cc(C(=O)N3C[C@H]4CC[C@@H]3[C@@H]4N)cc(F)c21 [Example 148, ((1R,4R,7R)-7-amino-2-azabicyclo[2.2.1]heptan-2-yl)(2-(1-(cyclopropylmethyl)-1,8-dihydropyrrolo[3,2-g]indol-2-yl)-7-fluoro-1-methyl-1H-benzo[d]imidazol-5-yl)methanone] | –
14 | 100 to 500 nM | 100 to 500 nM | – | – | CCN1CCc2c(ccc3cc(-c4nc5cc(C(=O)N6C[C@H]7CC[C@@H]6[C@@H]7N)cc(F)c5n4C)n(CC4CC4)c23)C1 [Example 153, ((1R,4R,7R)-7-amino-2-azabicyclo[2.2.1]heptan-2-yl)(2-(1-(cyclopropylmethyl)-7-ethyl-6,7,8,9-tetrahydro-1H-pyrrolo[2,3-f]isoquinolin-2-yl)-7-fluoro-1-methyl-1H-benzo[d]imidazol-5-yl)methanone] | –
15 | ≤ 100 nM | ≤ 100 nM | – | – | CC(=O)N1CCc2c(ccc3cc(-c4nc5cc(C(=O)N6C[C@H]7CC[C@@H]6[C@@H]7N)cc(F)c5n4C)n(CC4CC4)c23)C1 [Example 156, 1-(2-(5-((1R,4R,7R)-7-amino-2-azabicyclo[2.2.1]heptane-2-carbonyl)-7-fluoro-1-methyl-1H-benzo[d]imidazol-2-yl)-1-(cyclopropylmethyl)-1,6,8,9-tetrahydro-7H-pyrrolo[2,3-f]isoquinolin-7-yl)ethan-1-one] | –
